Twelve compounds from ChEMBL document CHEMBL4342416, “Indole: A privileged scaffold for the design of anti-cancer agents” (Eur J Med Chem, 2019) can be followed below.

Molecules are shown by their SMILES. Values after ≈ are worked out from the molar mass of the structure shown.

The target of one assay is Histone deacetylase 3 (Homo sapiens, UniProt O15379). The assay is described as follows: Inhibition of HDAC3 (unknown origin).
A further assay deals with Histone deacetylase 2 (Homo sapiens, UniProt Q92769). Description: Inhibition of HDAC2 (unknown origin).
Histone deacetylase 2, sequence (Q92769 whole entry): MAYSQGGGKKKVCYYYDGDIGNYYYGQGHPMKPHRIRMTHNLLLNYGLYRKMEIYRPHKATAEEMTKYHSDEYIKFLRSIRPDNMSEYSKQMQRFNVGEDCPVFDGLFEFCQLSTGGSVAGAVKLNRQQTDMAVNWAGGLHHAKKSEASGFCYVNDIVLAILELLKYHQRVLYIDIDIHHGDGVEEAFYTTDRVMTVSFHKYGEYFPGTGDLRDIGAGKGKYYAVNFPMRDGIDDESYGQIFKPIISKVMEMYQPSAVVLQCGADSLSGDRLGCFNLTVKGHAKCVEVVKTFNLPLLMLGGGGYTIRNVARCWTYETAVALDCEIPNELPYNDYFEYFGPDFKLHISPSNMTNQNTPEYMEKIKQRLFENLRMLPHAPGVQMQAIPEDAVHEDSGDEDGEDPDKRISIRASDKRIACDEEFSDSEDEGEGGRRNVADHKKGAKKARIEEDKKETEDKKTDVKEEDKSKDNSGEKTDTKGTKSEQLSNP
The target of assay [1] is Polyamine deacetylase HDAC10 (Homo sapiens, UniProt Q969S8). The assay is described as follows: Inhibition of HDAC10 (unknown origin).
Polyamine deacetylase HDAC10, sequence (Q969S8 whole entry): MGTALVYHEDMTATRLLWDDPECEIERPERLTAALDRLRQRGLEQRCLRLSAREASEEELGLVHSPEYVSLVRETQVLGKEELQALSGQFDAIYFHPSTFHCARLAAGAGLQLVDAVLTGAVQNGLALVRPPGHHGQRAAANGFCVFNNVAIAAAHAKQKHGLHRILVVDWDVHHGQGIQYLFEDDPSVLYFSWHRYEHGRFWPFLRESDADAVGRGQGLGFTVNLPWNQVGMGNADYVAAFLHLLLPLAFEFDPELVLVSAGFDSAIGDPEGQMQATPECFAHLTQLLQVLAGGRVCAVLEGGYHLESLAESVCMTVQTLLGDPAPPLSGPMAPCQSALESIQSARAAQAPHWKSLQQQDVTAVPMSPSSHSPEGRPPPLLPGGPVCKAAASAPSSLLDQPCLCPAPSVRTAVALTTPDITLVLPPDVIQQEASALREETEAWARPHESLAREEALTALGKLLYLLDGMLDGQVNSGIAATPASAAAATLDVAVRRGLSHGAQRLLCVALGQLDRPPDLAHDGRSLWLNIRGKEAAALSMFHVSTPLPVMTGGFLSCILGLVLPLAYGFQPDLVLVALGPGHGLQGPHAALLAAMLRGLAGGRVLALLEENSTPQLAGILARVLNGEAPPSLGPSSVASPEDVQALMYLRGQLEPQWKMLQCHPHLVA
The target of another assay is Histone deacetylase 1 (Homo sapiens, UniProt Q13547).
Histone deacetylase 1, sequence (Q13547 whole entry): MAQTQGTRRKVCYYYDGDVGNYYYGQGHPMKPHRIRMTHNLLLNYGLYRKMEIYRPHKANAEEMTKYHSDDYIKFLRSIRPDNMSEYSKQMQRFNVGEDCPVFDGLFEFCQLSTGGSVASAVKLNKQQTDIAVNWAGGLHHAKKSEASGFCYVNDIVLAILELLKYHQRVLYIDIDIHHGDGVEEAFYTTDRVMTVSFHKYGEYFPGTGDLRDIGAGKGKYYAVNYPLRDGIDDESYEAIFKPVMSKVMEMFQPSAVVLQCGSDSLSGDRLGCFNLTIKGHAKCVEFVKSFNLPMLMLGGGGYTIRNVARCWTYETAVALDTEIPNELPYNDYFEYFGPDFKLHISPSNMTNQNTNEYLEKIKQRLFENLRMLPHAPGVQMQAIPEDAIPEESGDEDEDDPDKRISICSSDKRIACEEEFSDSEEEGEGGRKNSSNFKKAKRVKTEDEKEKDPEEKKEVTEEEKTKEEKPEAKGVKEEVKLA
For a further assay, the target named is Aromatase (Homo sapiens, UniProt P11511). Description: Inhibition of recombinant human CYP19 using MFC as substrate incubated for 30 mins in presence of NADPH by fluorescence based assay.
Aromatase, sequence (P11511 whole entry): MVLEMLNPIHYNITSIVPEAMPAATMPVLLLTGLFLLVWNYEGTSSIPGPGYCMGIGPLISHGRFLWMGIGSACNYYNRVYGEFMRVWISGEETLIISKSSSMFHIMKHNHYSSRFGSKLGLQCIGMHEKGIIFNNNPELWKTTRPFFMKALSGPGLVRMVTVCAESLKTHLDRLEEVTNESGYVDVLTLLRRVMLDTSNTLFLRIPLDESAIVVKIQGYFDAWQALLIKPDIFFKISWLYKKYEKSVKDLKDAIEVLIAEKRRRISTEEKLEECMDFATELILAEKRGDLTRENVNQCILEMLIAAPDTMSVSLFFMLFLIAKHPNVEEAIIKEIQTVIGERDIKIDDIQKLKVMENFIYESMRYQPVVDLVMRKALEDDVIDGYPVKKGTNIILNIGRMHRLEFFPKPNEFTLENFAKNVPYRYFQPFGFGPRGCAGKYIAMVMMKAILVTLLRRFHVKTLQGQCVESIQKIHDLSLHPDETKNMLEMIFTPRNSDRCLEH
Assay [2] has as its target Sigma non-opioid intracellular receptor 1 (Cavia porcellus, UniProt Q60492). The assay is described as follows: Displacement of (+)-[3H]pentazocine from sigma1 receptor in guinea pig brain membranes. Format: cell membranes.
Assay [3] relates to A549. Description: Antiproliferative activity against human A549 cells assessed as reduction in cell viability after 72 hrs by MTT assay. Format: functional, cell-based. The conditions noted are these: A549, 72 h.
Another assay concerns HuCC-A1. The assay is described as follows: Antiproliferative activity against human HuCCa1 cells assessed as reduction in cell viability after 3 days by MTT assay. Format: functional, cell-based. To be noted: HuCC-A1, 72 h.
The subject of a further assay is MOLT-3. The assay is described as follows: Antiproliferative activity against human MOLT3 cells assessed as reduction in cell viability after 3 days by MTT assay. It counts as functional, cell-based. To be noted: MOLT-3, 72 h.
The test system of assay [4] is A549. The assay is described as follows: Antiproliferative activity against human A549 cells assessed as reduction in cell viability after 48 hrs by MTT assay. It counts as functional, cell-based. To be noted: A549, 48 h. (In general: Formazan colour is commonly taken as a measure of viable cells.)
Assay [5] deals with MCF7. Description: Antiproliferative activity against human MCF7 cells assessed as reduction in cell viability after 48 hrs by MTT assay. Format: functional, cell-based. The conditions noted are these: MCF7, 48 h.
Another assay relates to HeLa. The assay is described as follows: Antiproliferative activity against human HeLa cells assessed as reduction in cell viability after 48 hrs by MTT assay. It counts as functional, cell-based.
Assay [6] deals with HepG2. The assay is described as follows: Antiproliferative activity against human HepG2 cells assessed as reduction in cell viability after 48 hrs by MTT assay. To be noted: HepG2, 48 h. It counts as functional, cell-based.
The target of a further assay is Tubulin (Bos taurus, UniProt Q6B856+Q862L2+Q862F3). The assay is described as follows: Inhibition of bovine brain tubulin polymerization by spectrometric analysis.
Assay [7] is described as follows: Inhibition of bovine brain microtubule polymerization incubated for 60 mins by spectrophotometric method. The arrangement: species or system Bos taurus.
The target in assay [8] is Induced myeloid leukemia cell differentiation protein Mcl-1 (Homo sapiens, UniProt Q07820). Description: Inhibition of MCL1 (unknown origin).
Induced myeloid leukemia cell differentiation protein Mcl-1, sequence (Q07820 whole entry): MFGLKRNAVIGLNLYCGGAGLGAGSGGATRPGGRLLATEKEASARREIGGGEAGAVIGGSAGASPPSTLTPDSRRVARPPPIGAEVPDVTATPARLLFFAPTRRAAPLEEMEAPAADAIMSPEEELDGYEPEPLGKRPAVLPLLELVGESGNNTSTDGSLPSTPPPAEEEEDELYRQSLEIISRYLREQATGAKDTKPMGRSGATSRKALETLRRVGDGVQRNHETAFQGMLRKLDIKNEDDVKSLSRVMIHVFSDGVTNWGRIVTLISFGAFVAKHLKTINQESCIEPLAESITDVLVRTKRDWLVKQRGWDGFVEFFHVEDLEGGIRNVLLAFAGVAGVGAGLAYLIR
A further assay deals with HT-29. The assay is described as follows: Antiproliferative activity against human HT-29 cells assessed as reduction in cell viability after 48 hrs by MTT assay. Format: functional, cell-based. The conditions noted are these: HT-29, 48 h.
The test system of the next assay is HCT-116. Description: Antiproliferative activity against human HCT116 cells assessed as reduction in cell viability by MTT assay. Format: functional, cell-based.
In another assay the test system is LoVo. Description: Antiproliferative activity against human LoVo cells assessed as reduction in cell viability by MTT assay. Format: functional, cell-based.
Assay [9] deals with K562. Description: Antiproliferative activity against human K562 cells assessed as reduction in cell viability by MTT assay. Format: functional, cell-based.
The subject of assay [10] is MCF7. Description: Antiproliferative activity against human MCF7 cells assessed as reduction in cell viability by MTT assay. Format: functional, cell-based.
Assay [11] deals with HepG2. Description: Antiproliferative activity against human HepG2 cells assessed as reduction in cell viability by MTT assay. Format: functional, cell-based.
Assay [12] concerns the target Protein deacetylase HDAC6 (Homo sapiens, UniProt Q9UBN7). The assay is described as follows: Inhibition of HDAC6 (unknown origin) by fluorescence based assay.
A further assay addresses Histone deacetylase 8 (Homo sapiens, UniProt Q9BY41). Description: Inhibition of HDAC8 (unknown origin) by fluorescence based assay.
For assay [13], the system named is HepG2. The assay is described as follows: Antiproliferative activity against human HepG2 cells assessed as reduction in cell viability after 72 hrs by MTT assay. It counts as functional, cell-based. The conditions noted are these: HepG2, 72 h.
Assay [14] deals with K562. The assay is described as follows: Antiproliferative activity against human K562 cells assessed as reduction in cell viability after 72 hrs by MTT assay. The conditions noted are these: K562, 72 h. Format: functional, cell-based.
The target in assay [15] is Histone deacetylase 3/Nuclear receptor corepressor 2 (HDAC3/NCoR2) (Homo sapiens, UniProt O15379). Description: Inhibition of recombinant human C-terminal GST/His-tagged HDAC3 (1 to 428 residues) co-expressed with human N-terminal GST-tagged NCOR2 (395 to 489 residues) in baculovirus infected Sf9 cells using Boc-Lys(Ac)-AMC as substrate preincubated for 15 mins followed by substrate addition and measured after 60 mins by fluorometric method.

A further assay deals with THP-1. Description: Growth inhibition of human THP1 cells incubated for 72 hrs by trypan blue assay. It counts as functional. The conditions noted are these: THP-1, 72 h.
Assay [16] has as its target Bromodomain-containing protein 4 (Homo sapiens) (UniProt O60885). The assay is described as follows: Inhibition of GST-tagged BRD4 bromodomain 1/2 (unknown origin) at 10 uM incubated for 3 hrs by fluorescence based assay relative to control.

Protein deacetylase HDAC6, sequence (Q9UBN7 whole entry): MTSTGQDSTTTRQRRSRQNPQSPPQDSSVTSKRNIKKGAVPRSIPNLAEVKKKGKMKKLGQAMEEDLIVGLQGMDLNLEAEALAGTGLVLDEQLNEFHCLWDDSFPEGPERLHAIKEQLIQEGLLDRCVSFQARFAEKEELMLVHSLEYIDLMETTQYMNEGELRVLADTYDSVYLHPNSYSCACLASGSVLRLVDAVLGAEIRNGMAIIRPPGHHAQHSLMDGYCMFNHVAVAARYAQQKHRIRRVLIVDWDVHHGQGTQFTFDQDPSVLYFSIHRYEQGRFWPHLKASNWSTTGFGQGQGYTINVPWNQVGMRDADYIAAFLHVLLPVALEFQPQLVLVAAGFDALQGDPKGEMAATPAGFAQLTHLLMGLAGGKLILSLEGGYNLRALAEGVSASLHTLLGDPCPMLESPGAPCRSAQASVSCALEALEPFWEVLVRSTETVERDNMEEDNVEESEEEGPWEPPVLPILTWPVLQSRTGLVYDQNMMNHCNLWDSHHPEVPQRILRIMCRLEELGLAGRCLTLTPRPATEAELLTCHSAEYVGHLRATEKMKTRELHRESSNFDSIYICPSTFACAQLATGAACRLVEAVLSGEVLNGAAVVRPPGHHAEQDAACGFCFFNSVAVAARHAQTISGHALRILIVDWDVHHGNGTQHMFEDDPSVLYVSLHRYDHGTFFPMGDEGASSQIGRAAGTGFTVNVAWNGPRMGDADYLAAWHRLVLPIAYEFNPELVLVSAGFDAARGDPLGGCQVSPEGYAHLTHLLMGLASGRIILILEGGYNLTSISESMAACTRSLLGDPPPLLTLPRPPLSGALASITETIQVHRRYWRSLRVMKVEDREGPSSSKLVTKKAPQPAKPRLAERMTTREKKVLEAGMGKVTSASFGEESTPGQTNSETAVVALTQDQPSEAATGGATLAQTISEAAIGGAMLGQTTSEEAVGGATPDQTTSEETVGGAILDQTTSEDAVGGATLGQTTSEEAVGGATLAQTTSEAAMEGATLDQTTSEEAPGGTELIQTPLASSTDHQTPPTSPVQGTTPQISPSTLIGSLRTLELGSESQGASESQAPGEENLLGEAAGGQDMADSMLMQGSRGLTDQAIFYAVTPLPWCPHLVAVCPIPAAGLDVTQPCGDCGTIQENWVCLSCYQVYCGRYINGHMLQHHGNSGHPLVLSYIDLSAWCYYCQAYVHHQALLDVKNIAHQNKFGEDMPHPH
Sigma non-opioid intracellular receptor 1, sequence (Q60492 whole entry): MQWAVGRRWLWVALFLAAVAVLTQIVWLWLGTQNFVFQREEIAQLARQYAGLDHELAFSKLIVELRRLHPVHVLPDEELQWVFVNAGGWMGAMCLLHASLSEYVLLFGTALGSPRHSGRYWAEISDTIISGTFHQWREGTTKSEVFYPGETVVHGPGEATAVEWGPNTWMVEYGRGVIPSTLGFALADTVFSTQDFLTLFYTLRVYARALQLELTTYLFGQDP
Histone deacetylase 3, sequence (O15379 whole entry): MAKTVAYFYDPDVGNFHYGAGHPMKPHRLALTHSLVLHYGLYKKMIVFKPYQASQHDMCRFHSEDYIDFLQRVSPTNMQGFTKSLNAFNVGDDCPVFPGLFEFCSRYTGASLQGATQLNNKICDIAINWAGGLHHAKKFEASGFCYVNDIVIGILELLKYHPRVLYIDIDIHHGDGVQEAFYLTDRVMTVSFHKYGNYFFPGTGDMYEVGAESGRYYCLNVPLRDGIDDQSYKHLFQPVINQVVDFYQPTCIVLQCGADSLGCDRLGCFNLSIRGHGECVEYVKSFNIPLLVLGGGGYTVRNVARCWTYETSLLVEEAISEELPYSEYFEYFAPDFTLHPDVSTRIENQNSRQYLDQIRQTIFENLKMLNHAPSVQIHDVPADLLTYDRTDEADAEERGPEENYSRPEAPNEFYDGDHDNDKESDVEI
Histone deacetylase 8, sequence (Q9BY41 whole entry): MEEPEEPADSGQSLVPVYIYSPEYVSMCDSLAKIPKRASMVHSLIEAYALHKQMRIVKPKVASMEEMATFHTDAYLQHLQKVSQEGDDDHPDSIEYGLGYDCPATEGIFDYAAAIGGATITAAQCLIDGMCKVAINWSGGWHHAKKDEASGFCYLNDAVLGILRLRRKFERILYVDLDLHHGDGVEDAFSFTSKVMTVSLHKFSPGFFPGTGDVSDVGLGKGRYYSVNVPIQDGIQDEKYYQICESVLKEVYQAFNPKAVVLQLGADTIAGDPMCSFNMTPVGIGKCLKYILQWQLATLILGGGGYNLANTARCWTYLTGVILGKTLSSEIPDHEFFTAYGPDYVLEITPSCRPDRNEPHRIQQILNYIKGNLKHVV
Description for Histone deacetylase 1: Inhibition of HDAC1 (unknown origin)

The IC50 is the concentration needed to halve the response being measured. As for `Nc1ccc(F)cc1NC(=O)c1ccc(CNC(=O)/C=C/c2cccnc2)cc1`, the IC50 against Histone deacetylase 3 was determined as 67 nM; at Histone deacetylase 2, 160 nM; in assay [1] it was 78 nM; on Histone deacetylase 1, 95 nM.
On to `Cc1[nH]c2ccccc2c1/C=N\Nc1ccc(Cl)cc1`, for which, at Aromatase, the IC50 was 8720 nM.
Usually Ki stands for a measure of affinity in units of concentration, obtained from inhibition or displacement. A low value points to tighter binding. As for `COc1cc2c(cc1OC)CN(CCCCc1cn(-c3ccc(F)cc3)c3ccccc13)CC2`, in assay [2], the affinity corresponds to a Ki of 5.34 nM.
Regarding `O=S(=O)(NCCc1c(C(c2ccccc2O)c2[nH]c3ccccc3c2CCNS(=O)(=O)c2ccc(Cl)cc2)[nH]c2ccccc12)c1ccc(Cl)cc1`, the IC50 came out at 8740 nM with A549 [3] and 7750 nM with HuCC-A1.
As for `O=[N+]([O-])c1ccc(S(=O)(=O)NCCc2c(C(c3ccccc3O)c3[nH]c4ccccc4c3CCNS(=O)(=O)c3ccc([N+](=O)[O-])cc3)[nH]c3ccccc23)cc1`, the IC50 in the assay with MOLT-3 worked out at 3.95 µg/mL (≈ 4.97 µM).
Take `COc1cc(C2=NN(C(N)=O)C(c3cn(C)c4ccc(Br)cc34)C2)cc(OC)c1OC` (stereo unspecified): the half-maximal inhibitory concentration (IC50) in the assay with A549 [4] came to 260 nM; in the assay on MCF7 [5], 290 nM; in the assay on HeLa, 210 nM; in the assay with HepG2 [6], 310 nM; against Tubulin, 2120 nM.
Compound `CC[C@]1(O)C[C@H]2CN(CCc3c([nH]c4ccccc34)[C@@](C(=O)OC)(c3cc4c(cc3OC)N(C=O)[C@H]3[C@@](O)(C(=O)OC)[C@H](OC(C)=O)[C@]5(CC)C=CCN6CC[C@]43[C@@H]65)C2)C1` [VINCRISTINE] yielded a Ki in assay [7] of 85 nM.
In [8], `Cc1cc(OCCCc2c(C(=O)NS(=O)(=O)c3ccc(C(=O)NCc4ccccc4)o3)[nH]c3c(-c4c(C)n[nH]c4C)c(Cl)ccc23)cc(C)c1Cl` displayed a Ki of 2.4 nM.
For `CN1CCN(c2ncc([N+](=O)[O-])c(Nc3c(C(=O)c4cccs4)[nH]c4cc(Cl)ccc34)n2)CC1`, the IC50 is 5560 nM with HT-29 and 14400 nM with A549 [4].
In the case of `COc1ccc2[nH]cc(Cn3cc(COc4ccc(/C=C/C(=O)NO)cc4OC)nn3)c2c1`, the IC50 in the assay with HCT-116 was 3570 to 6210 nM; in the assay on LoVo, 3570 to 6210 nM; in the assay on K562 [9], 3570 to 6210 nM; in the assay on MCF7 [10], 3570 to 6210 nM; in the assay on HepG2 [11], 3570 to 6210 nM; in assay [12], 290 nM. This compound registered an IC50 against Histone deacetylase 8 of 380 nM.
For the compound `COc1cc(S(=O)(=O)/C=C/c2cccc3[nH]ccc23)cc(OC)c1OC`, the IC50 in the assay with HepG2 [13] came to 75 nM; in the assay with A549 [3] it was 305 nM; with K562 [14], 55 nM.
In general, GI50 refers to the concentration that inhibits growth by half. High values mean lower sensitivity of the cells, low ones greater sensitivity of the cells. A word on the inhibition: it is the percentage by which the read-out fell short of the control. Take `Cc1noc(C)c1-c1ccc2c(c1)c(Cc1ccc(F)cc1)cn2CCCCCCC(=O)NO`: the IC50 in assay [15] was 5 nM. This compound yielded a GI50 in the assay with THP-1 of 7820 to 24200 nM. In [16], the inhibition came to 88%.
